This note sets out measurements from US5733924A, “DC 107 derivatives and treatment methods” (Kyowa Hakko Kogyo Co., Ltd., priority 1995, dated 1998).

One may read the ILS as the gain in survival time of treated over control animals, in per cent.

Assay [1] has as its system Staphylococcus aureus ATCC 6538P. As to the kind of experiment: Antibacterial activity, agar dilution method (MIC). Format: cell-based. As to conditions: for MIC: ATCC6538P. An excerpt:
(§1) The antibacterial activity as determined by the agar dilution method using a medium prepared by dissolving 3 g of Bacto-Tryptone (a product of Difco Laboratories), 3 g of a meat extract, 1 g of an yeast extract, 1 g of glucose and 16 g of agar in one liter of water (pH 7).
SA: Staphylococcus aureus ATCC 6538P
In general terms: In agar dilution the substance is mixed into plates at graded concentrations.

In assay [2] the test system is Bacillus subtilis No. 10707. As to the kind of experiment: Antibacterial activity, agar dilution method (MIC). The conditions noted are these: for MIC: BS: Bacillus subtilis No. 10707, pH 7, read-out: MIC (minimum growth inhibitory concentration). Format: cell-based.
From the text: as §1
BS: Bacillus subtilis No. 10707

The test system of assay [3] is Klebsiella pneumoniae ATCC 10031. As to the kind of experiment: Antibacterial activity, agar dilution method (MIC). Format: cell-based. The conditions noted are these: KP: Klebsiella pneumoniae ATCC 10031, agar dilution, pH 7; for MIC: ATCC10031, read-out: MIC (minimum growth inhibitory concentration).
From the text: as §1
KP: Klebsiella pneumoniae ATCC 10031

For assay [4], the system named is Enterococcus faecium ATCC 10541. As to the kind of experiment: Antibacterial activity, agar dilution method (MIC). Format: cell-based.
From the text: as §1
EF: Enterococcus faecium ATCC 10541

In the next assay the test system is P388 Leukemia. Put plainly: Antitumor activity against P388 leukemia in mice (increased life span). The conditions noted are these: Mus musculus, P388, ip, 720 h; for ILS at 16 mg/kg: single i.p. 24 hours after transplantation, CDF1 mice, 30 days observation. Format: in vivo, CDF1 mice. How it is done: Ascites were collected from the abdominal cavity of P388 ascites tumor-bearing cancer mice (DBA/2) on the 7th day after transplantation. A number of P388 cells in the ascites was counted, and a tumor cell floating liquid of 5×10^6 cells/ml was prepared using a physiological saline solution. Then, 0.2 ml of the solution containing 1×10^6 cells was transplanted into the abdominal cavity of CDF1 mice having a body weight of from 20 to 25 g.
The effect of the test compound was determined in terms of the ratio of average survival days of the group administered with the test compound to average survival days of the control group (non-medicated group) (i.e., an increased life span, ILS%).

The subject of another assay is Escherichia coli ATCC 26. As to the kind of experiment: Antibacterial activity, agar dilution method (MIC). Format: cell-based.
From the text: as §1
EC: Escherichia coli ATCC 26

Where [5] appears, read: SA: Staphylococcus aureus ATCC 6538P, agar dilution, pH 7, read-out: MIC (minimum growth inhibitory concentration).
Setting [6] is: ATCC10541, EF: Enterococcus faecium ATCC 10541, pH 7, read-out: MIC (minimum growth inhibitory concentration).
Where [7] appears, read: ATCC26, EC: Escherichia coli ATCC 26, pH 7, read-out: MIC (minimum growth inhibitory concentration).

Converted amounts (≈) assume the structure as drawn. Like-named read-outs stand apart in the source and are kept apart here.

For `CC(=O)OC1/C=C(\C)CCC2(CC(=O)NC(C)c3nc(cs3)/C=C\C=C\C1=O)[S+]([O-])SC(=O)C2(C)O` (centres unmarked) [Compound 1], the MIC is 0.52 µg/mL (≈ 0.941 µM) in assay [1] (setting [5]), 0.26 µg/mL (≈ 0.47 µM) in assay [2], 17 µg/mL (≈ 30.8 µM) in assay [3] and 0.52 µg/mL (≈ 0.941 µM) in assay [4] (setting [6]).

As to `CC1=CC(OC(=O)CNC(=O)CNC(=O)c2ccccc2)C(=O)C=CC=Cc2csc(n2)C(C)N2C(=O)CC(C(C)(O)C(=O)SCc3oc(=O)oc3C)(CC1)[S+]2[O-]` (centres unmarked) [Compound 167], the MIC in assay [1] (setting [5]), in assay [2], in assay [3] and in assay [4] (setting [6]) was 2.1 µg/mL (≈ 2.5 µM) each time. Moreover, the ILS at 16 mg/kg with P388 Leukemia is 90%.

`C/C1=C\C(OC(=O)OCC(C)C)C(=O)/C=C/C=C\c2csc(n2)C(C)N2C(=O)CC(C(C)(O)C(=O)SCc3oc(=O)oc3C)(CC1)[S+]2[O-]` (centres unmarked) [Compound 54]: the MIC in assay [1] (Staphylococcus aureus, pH 7, read-out: MIC (minimum growth inhibitory concentration)) was 0.13 µg/mL (≈ 0.18 µM); in the assay with Escherichia coli ATCC 26 (Escherichia coli, ATCC26, pH 7, read-out: MIC (minimum growth inhibitory concentration), EC: Escherichia coli ATCC 26), 0.018 µg/mL (≈ 0.0249 µM); in assay [4] (Enterococcus faecium, ATCC10541, pH 7, read-out: MIC (minimum growth inhibitory concentration), EF: Enterococcus faecium ATCC 10541), 0.13 µg/mL (≈ 0.18 µM). Further, the ILS at 2 mg/kg in the assay with P388 Leukemia (read-out: ILS (increased life span)) is 42%.

As for `COC1(OC2/C=C(\C)CCC3(CC(=O)NC(C)c4nc(cs4)/C=C\C=C\C2=O)[S+]([O-])SC(=O)C3(C)O)CCOCC1` (centres unmarked) [Compound 90], the MIC in assay [1] (setting [5]) is 0.041 µg/mL (≈ 0.0656 µM); with Escherichia coli ATCC 26 (setting [7]) it was 0.65 µg/mL (≈ 1.04 µM); in assay [2] it was 0.02 µg/mL (≈ 0.032 µM); in assay [3], 0.16 µg/mL (≈ 0.256 µM); in assay [4] (setting [6]), 0.041 µg/mL (≈ 0.0656 µM).

`C/C1=C\C(OC2CCCCO2)C(=O)/C=C/C=C\c2csc(n2)C(C)N2C(=O)CC(C(C)(O)C(=O)SCc3oc(=O)oc3C)(CC1)[S+]2[O-]` (single isomer, unassigned) [Compound 64]: the “MIC (minimum growth inhibitory concentration)” value in assay [1] (SA: Staphylococcus aureus ATCC 6538P, agar dilution, pH 7) was found to be 0.65 µg/mL (≈ 0.92 µM); against Escherichia coli ATCC 26 (EC: Escherichia coli ATCC 26, pH 7), 5.2 µg/mL (≈ 7.36 µM); in assay [2] (BS: Bacillus subtilis No. 10707, pH 7), 0.16 µg/mL (≈ 0.226 µM); in assay [3], 5.2 µg/mL (≈ 7.36 µM); in assay [4] (EF: Enterococcus faecium ATCC 10541, pH 7) it was 1.3 µg/mL (≈ 1.84 µM).

Take `COC1(OC2C=C(C)CCC3(C(C)(O)C(=O)SCc4oc(=O)oc4C)CC(=O)N(C(C)c4nc(cs4)C=CC=CC2=O)[S+]3[O-])CCSCC1` (centres unmarked) [Compound 127]: the MIC was determined as 0.65 µg/mL (≈ 0.863 µM) in assay [1] (setting [5]), 0.041 µg/mL (≈ 0.0545 µM) in assay [2], 2.6 µg/mL (≈ 3.45 µM) in assay [3] and 0.65 µg/mL (≈ 0.863 µM) in assay [4] (setting [6]). The molecule further gave an ILS at 16 mg/kg in the assay on P388 Leukemia of 52%.

`COCOC1/C=C(\C)CCC2(CC(=O)NC(C)c3nc(cs3)/C=C\C=C\C1=O)[S+]([O-])SC(=O)C2(C)O` (centres unmarked) [Compound 30]: the MIC stood at 0.13 µg/mL (≈ 0.234 µM) in assay [1] (setting [5]); 8.3 µg/mL (≈ 15 µM) in the assay on Escherichia coli ATCC 26 (setting [7]); 0.033 µg/mL (≈ 0.0595 µM) in assay [2]; 1 µg/mL (≈ 1.8 µM) in assay [3]; 0.065 µg/mL (≈ 0.117 µM) in assay [4] (setting [6]).

Regarding `C/C1=C\C(O)C(=NOCc2ccccc2)/C=C/C=C\c2csc(n2)C(C)NC(=O)CC2(CC1)[S+]([O-])SC(=O)C2(C)O` (centres unmarked) [Compound 69], the MIC in assay [1] (setting [5]) worked out at 0.057 µg/mL (≈ 0.0926 µM); in the assay with Escherichia coli ATCC 26 (setting [7]), 1.8 µg/mL (≈ 2.92 µM); in assay [2] it was 0.028 µg/mL (≈ 0.0455 µM); in assay [3], 0.23 µg/mL (≈ 0.373 µM); in assay [4] (setting [6]), 0.028 µg/mL (≈ 0.0455 µM).

`C/C1=C\C(OC(=O)c2ccc(F)cc2)C(=O)/C=C/C=C\c2csc(n2)C(C)NC(=O)CC2(CC1)[S+]([O-])SC(=O)C2(C)O` (centres unmarked) [Compound 8]: the MIC in assay [1] (setting [5]) was 0.081 µg/mL (≈ 0.128 µM); in the assay with Escherichia coli ATCC 26 (setting [7]), 1.3 µg/mL (≈ 2.05 µM); in assay [2], 0.02 µg/mL (≈ 0.0316 µM); in assay [3], 1.3 µg/mL (≈ 2.05 µM); in assay [4] (setting [6]) it was 0.081 µg/mL (≈ 0.128 µM).

For `COC(C)(C)OC1/C=C(\C)CCC2(C(C)(O)C(=O)SCc3oc(=O)oc3C)CC(=O)N(C(C)c3nc(cs3)/C=C\C=C\C1=O)[S+]2[O-]` (centres unmarked) [Compound 121], the MIC was determined as 0.78 µg/mL (≈ 1.12 µM) in assay [1] (setting [5]), 0.26 µg/mL (≈ 0.374 µM) in assay [2], 0.39 µg/mL (≈ 0.561 µM) in assay [3] and 0.78 µg/mL (≈ 1.12 µM) in assay [4] (setting [6]).

Take `COCOC1/C=C(\C)CCC2(C(C)(O)C(=O)SCc3oc(=O)oc3C)CC(=O)N(C(C)c3nc(cs3)/C=C\C=C\C1=O)[S+]2[O-]` (centres unmarked) [Compound 58]: the MIC came out at 0.72 µg/mL (≈ 1.08 µM) in assay [1] (setting [5]); 46 µg/mL (≈ 69 µM) with Escherichia coli ATCC 26 (setting [7]); 0.72 µg/mL (≈ 1.08 µM) in assay [2]; 2.9 µg/mL (≈ 4.35 µM) in assay [3]; 0.72 µg/mL (≈ 1.08 µM) in assay [4] (setting [6]).

In the case of `CCCCCCCC(=O)OCSC(=O)C(C)(O)C12CC/C(C)=C/C(O)C(=O)/C=C/C=C\c3csc(n3)C(C)N(C(=O)C1)[S+]2[O-]` (centres unmarked) [Compound 84], the MIC in assay [1] (setting [5]) is 0.39 µg/mL (≈ 0.585 µM); in assay [2], 0.049 µg/mL (≈ 0.0735 µM); in assay [3], 0.098 µg/mL (≈ 0.147 µM); in assay [4] (setting [6]) it was 0.39 µg/mL (≈ 0.585 µM).
